Measured values as given in US9132171B2, “Test of insulin as a drug to reduce restenosis of vessels” (WISCONSIN ALUMNI RESEARCH FOUNDATION, priority 2012, dated 2015).

Assays:
IGF-2BP3 = test: mRNA expression array analysis of TGFbeta/Smad3-treated SMCs; assay type: cell-based, mouse; conditions: data not shown
Source text: Cell Culture. Aortic SMCs were isolated from mouse (MOVAS) aortas. Rat aortic fibroblasts were isolated as previously described by Pagano et al., Localization of a constitutively active, phagocyte-like NADPH oxidase in rabbit aortic adventitia: enhancement by angiotensin II, Proc. Natl. Acad. Sci. USA. December 23; 94(26):14483-8 (1997), incorporated herein by reference as if set forth in its entirety, and used to visualize collagen secretion into growth media. These cells were transfected with green fluorescent protein (GFP) and SMAD3 adenoviral vectors expressing Smad3 (AdSmad3) and GFP (AdGFP), constructed as previously described in Ryer, E. et al., Arterioscler Thromb Vasc Biol. 26:780-786, 2006, incorporated herein by reference as if set forth in its entirety. Adenoviral vector expressing GFP was used as a control (AdGFP).
CTGF and IGF-2 are present in the CM derived from SMCs that overexpress Smad3 (FIGS. 2A and B respectively).

rat aortic fibroblasts = test: Collagen III and I in culture medium of treated rat aortic fibroblasts (direct ELISA, Western blot); assay type: cell-based; conditions: CTGF, insulin (1 ug) or both, 72 hours
Description: Collagen produced by rat fibroblasts was measured using Western blotting. […] GFP (control) and Smad3-transfected SMCs were starved for 24 hours in 0.5% serum DMEM medium and then treated with TGFbetal (5 ng/ml) for 48 hours. […] Thirty micrograms of proteins from each sample were separated on 10% SDS-PAGE gels. Protein samples were transferred to a polyvinylidene fluoride (PVDF) membrane. Rabbit anti-collagen type III (1:1000) and I (1:1000) (Fitzgerald) and goat-anti Rabbit (1:5000) were used as primary and secondary antibodies respectively to confirm immunoblotting. Conditioned medium was blotted parallel to unconditioned culture medium to rule out the possibility of presence of collagen in the former. Immunoblotting was carried out to visualize collagen I and III in culture medium after treating rat fibroblasts with CTGF (0.1 μg/ml) and IGF-2 (0.3 μg/ml) for 72 hours. These experiments were replicated using insulin in place of IGF-2. ELISA was used to detect the presence of IGF-2 and CTGF in the conditioned medium using the primary antibodies from Abcam® according to manufacturer's instructions. Fitzgerald Collagen I and III primary antibodies were used to visualize changes in collagen production in the fibroblast culture medium following treatment with CTGF and IGF small interfering RNA-(siRNA) transfected conditioned medium for 72 hours. […]

[1] = test system: Smad3-expressing smooth muscle cells (SMCs); test: MTT cell proliferation assay; assay type: cell-based, rat; conditions: insulin 1 μg/ml, TGF-beta 5 ng/ml, 96 hours
Description: FIG. 7 illustrates a MTT proliferation assay of Smad3-expressing smooth muscle cells (SMCs) at 96 hours after treatment with TGF-beta (5 ng/ml) or TGF beta (5 ng/ml)+Insulin (1 μg/ml).
MTT cell proliferation assay was performed to visualize the effect of insulin on SMC proliferation. Smad3-transfected rat SMCs were stimulated with TGF-beta. Cells were then treated with 1 μg of insulin and the MTT assay was performed following 96 hours of treatment.
To determine whether insulin is sufficient for decreasing TGF-beta and Smad3-stimulated SMC proliferation, an MTT proliferation assay was carried out. Insulin abolished the TGF-beta-stimulated proliferation of Smad3-expressing SMCs (FIG. 7).

[2] = test system: left carotid artery balloon angioplasty; test: Balloon injury model with morphometric analysis; assay type: in vivo, rat; conditions: periadventitial in Pluronic gel, 14 days after injury, relative to non-treated vessels
Description: In vivo studies conformed to the Guide for the Care and Use of Laboratory Animals published by the US National Institute of Health. Approval from the Institutional Animal Care and Use Committee was granted. Male Sprague-Dawley rats underwent angioplasty of the left common carotid artery. Periadventitial Insulin (1 microgram) along with CTGF (100 nanogram) suspended in 200 μL of Pluronic® gel was applied to the adventitial surface of the artery immediately after injury. Control animals were subjected to application of Pluronic® gel only. Fourteen days after injury, carotid was harvested utilizing perfusion fixation at physiological pressure of 100 mmHg.
Paraffin-embedded arteries were cut into 5 μm sections for analysis. Morphometric analysis was carried out on arteries stained with Haematoxilin and Eosin. For each animal, 10 sections were selected for analysis using digital software for Dell PC Computers (ImageJ and Photoshop V.7). The areas encompassed by the lumen surface (luminal area), […], internal elastic lamina-lumen surface (neointimal area), EEL-internal elastic lamina (medial area) and EEL length were measured. For evaluation of remodeling index, the EEL was measured and compared with that of controls. […]

vessels = conditions: in vivo; cited from earlier work
balloon-injured vessel = test: Collagen I/III immunostaining of balloon-injured artery after perivascular CTGF; assay type: in vivo, rat; conditions: CTGF 80 ng in 200 microliters Pluronic gel, 14 days after carotid artery injury
Source text: FIG. 5 illustrates collagen subtype induction by CTGF in vivo. Arteries were injured and treated with recombinant CTGF as described in FIG. 2. Arterial sections, harvested at 14 days post-injury, were subsequently immunostained for either Type I (COLI) or Type III collagen (COLIII). (A) Representative tissue sections from solvent-(CTRL) or CTGF-treated arteries (CTGF). Negative controls were established by staining sections without primary antibodies to collagen. 100X (B) Semi-quantification of adventitial COLI or COLIII was carried out, and the effects of CTGF on COLI or COLIII were expressed as fold induction; n=6, *p<0.05 as compared to COLIII. […] FIG. 5B depicts CTGF-mediated differential production of collagens III and I when CTGF was applied around a balloon-injured vessel.

[3] = test system: balloon-injured blood vessels; conditions: CTGF applied to balloon-injured vessels; cited from earlier work

Molecule “TGFbeta: TGF-beta (5 ng/ml) used to treat Smad3-transfected SMCs” has an IGF-2BP3 increase (IGF-2BP3; 6 hours treatment) of 2.8 folds and an IGF-2BP3 increase (IGF-2BP3; 48 hours treatment) of 2.4 folds.

For insulin, the “Collagen III production in rat aortic fibroblasts” value (rat aortic fibroblasts) was “some increase in collagen III”, the “TGF-beta-stimulated proliferation of Smad3-expressing SMCs” value [1] was “abolished” and the “Increase in lumen size” value [2] was 29.24%. For the same molecule, the Neo-intimal growth [2] was “decreased neo-intimal growth”, the “Cell migration into the intima” value (vessels) was “inhibit cell migration into the intima” and the “Intima cell proliferation or apoptosis” value (vessels) was “does not decrease”. The Re-endothelialization in vessels (vessels) was “increase re-endothelialization”.

B1: Connective Tissue Growth Factor (protein, UniProt P29279 27-349, looked up)
CCN family member 2: QNCSGPCRCPDEPAPRCPAGVSLVLDGCGCCRVCAKQLGELCTERDPCDPHKGLFCHFGSPANRKIGVCTAKDGAPCIFGGTVYRSGESFQSSCKYQCTCLDGAVGCMPLCSMDVRLPSPDCPFPRRVKLPGKCCEEWVCDEPKDQTVVGPALAAYRLEDTFGPDPTMIRANCLVQTTEWSACSKTCGMGISTRVTNDNASCRLEKQSRLCMVRPCEADLEENIKKGKKCIRTPKISKPIKFELSGCTSMKTYRAKFCGVCTDGRCCTPHRTTTLPVEFKCPDGEVMKKNMMFIKTCACHYNCPGDNDIFESLYYRKMYGDMA
notes: soluble factor secreted by blood vessel adventitial cells
For B1, the “Collagen III production in rat aortic fibroblasts” value (rat aortic fibroblasts) is given as “some increase in collagen III”, the “Adventitial collagen III versus collagen I” value (balloon-injured vessel) is given as “collagen III increased significantly more as compared to collagen I” and the Lumen remodeling [3] is given as “expansively remodeled”.
